Reference: the NIST ThermoML archive (doi:10.1021/je060271a)
Values joined by “and” are separate entries in the source; they are usually repeats but may differ in a detail not shown here. Identical values can stand only once. Numbers after ± are expanded uncertainties.

Conditions: Liquid, Vibrating tube method

CCCCCC(=O)OCC(COC(=O)CCCCC)(COC(=O)CCCCC)COC(=O)CCCCC [pentaerythritol tetrahexanoate]
mass density (323.17 K, 28058 kPa): 990.9 ± 1.2 kg/m3 | mass density (323.17 K, 28086 kPa): 991 ± 1.2 kg/m3 | mass density (323.17 K, 28114 kPa): 991 ± 1.2 kg/m3 | mass density (323.17 K, 28143 kPa): 991 ± 1.2 kg/m3 | mass density (323.17 K, 28171 kPa): 991 ± 1.2 kg/m3 | mass density (323.17 K, 28198 kPa): 991 ± 1.2 kg/m3 | mass density (323.17 K, 28227 kPa): 991 ± 1.2 kg/m3 | mass density (323.17 K, 28250 kPa): 991 ± 1.2 kg/m3 | mass density (323.17 K, 28280 kPa): 991.1 ± 1.2 kg/m3 | mass density (323.17 K, 32281 kPa): 993.5 ± 1.2 kg/m3 | mass density (323.17 K, 32302 kPa): 993.5 ± 1.2 kg/m3 | mass density (323.17 K, 32323 kPa): 993.5 ± 1.2 kg/m3 | mass density (323.17 K, 32340 kPa): 993.5 ± 1.2 kg/m3 | mass density (323.17 K, 32354 kPa): 993.5 ± 1.2 kg/m3 | mass density (323.18 K, 15635 kPa): 983.3 ± 1.2 kg/m3 | mass density (323.18 K, 15665 kPa): 983.3 ± 1.2 kg/m3 | mass density (323.18 K, 15689 kPa): 983.4 ± 1.2 kg/m3 | mass density (323.18 K, 15719 kPa): 983.4 ± 1.2 kg/m3 | mass density (323.18 K, 15747 kPa): 983.4 ± 1.2 kg/m3 | mass density (323.18 K, 15770 kPa): 983.3 ± 1.2 kg/m3 | mass density (323.18 K, 15797 kPa): 983.4 ± 1.2 kg/m3 | mass density (323.18 K, 15822 kPa): 983.4 ± 1.2 kg/m3 | mass density (323.18 K, 16186 kPa): 983.7 ± 1.2 kg/m3 | mass density (323.18 K, 16212 kPa): 983.6 ± 1.2 kg/m3 | mass density (323.18 K, 16234 kPa): 983.7 ± 1.2 kg/m3 | mass density (323.18 K, 16261 kPa): 983.7 ± 1.2 kg/m3 | mass density (323.18 K, 16283 kPa): 983.8 ± 1.2 kg/m3 | mass density (323.18 K, 25706 kPa): 989.7 ± 1.2 kg/m3 | mass density (343.14 K, 219.9 kPa): 957.2 ± 1.2 kg/m3 | mass density (343.14 K, 220 kPa): 957.3 ± 1.2 kg/m3 | mass density (343.14 K, 220.3 kPa): 957.1 ± 1.2 kg/m3 and 957.2 ± 1.2 kg/m3 | mass density (343.14 K, 223.6 kPa): 957.3 ± 1.2 kg/m3 | mass density (343.14 K, 348.7 kPa): 957.3 ± 1.2 kg/m3 | mass density (343.14 K, 348.9 kPa): 957.2 ± 1.2 kg/m3 | mass density (343.14 K, 349 kPa): 957.3 ± 1.2 kg/m3 | mass density (343.14 K, 349.6 kPa): 957.4 ± 1.2 kg/m3 | mass density (343.14 K, 350.2 kPa): 957.3 ± 1.2 kg/m3 | mass density (343.14 K, 350.4 kPa): 957.2 ± 1.2 kg/m3 | mass density (343.14 K, 350.6 kPa): 957.3 ± 1.2 kg/m3 | mass density (343.14 K, 351.1 kPa): 957.3 ± 1.2 kg/m3 | mass density (343.14 K, 351.3 kPa): 957.3 ± 1.2 kg/m3 | mass density (343.14 K, 387.3 kPa): 957.4 ± 1.2 kg/m3 | mass density (343.14 K, 387.4 kPa): 957.2 ± 1.2 kg/m3 | mass density (343.14 K, 388.3 kPa): 957.4 ± 1.2 kg/m3 and 957.5 ± 1.2 kg/m3 | mass density (343.14 K, 388.5 kPa): 957.4 ± 1.2 kg/m3 | mass density (343.14 K, 388.8 kPa): 957.5 ± 1.2 kg/m3 | mass density (343.14 K, 389.7 kPa): 957.3 ± 1.2 kg/m3 | mass density (343.14 K, 390.2 kPa): 957.5 ± 1.2 kg/m3 | mass density (343.14 K, 754.9 kPa): 957.7 ± 1.2 kg/m3 | mass density (343.14 K, 762.4 kPa): 957.6 ± 1.2 kg/m3 | mass density (343.14 K, 769.9 kPa): 957.7 ± 1.2 kg/m3 | mass density (343.14 K, 778.4 kPa): 957.6 ± 1.2 kg/m3 | mass density (343.14 K, 925.3 kPa): 957.8 ± 1.2 kg/m3 | mass density (343.14 K, 935.1 kPa): 957.8 ± 1.2 kg/m3 | mass density (343.14 K, 947.2 kPa): 957.8 ± 1.2 kg/m3 | mass density (343.14 K, 956.9 kPa): 957.8 ± 1.2 kg/m3 | mass density (343.14 K, 1145.7 kPa): 958 ± 1.2 kg/m3 | mass density (343.14 K, 1156.5 kPa): 958 ± 1.2 kg/m3 | mass density (343.14 K, 1168 kPa): 958 ± 1.2 kg/m3 | mass density (343.14 K, 1181.7 kPa): 958 ± 1.2 kg/m3 | mass density (343.14 K, 1193 kPa): 958 ± 1.2 kg/m3 | mass density (343.14 K, 1206.5 kPa): 958 ± 1.2 kg/m3 | mass density (343.14 K, 1218.3 kPa): 958 ± 1.2 kg/m3 | mass density (343.14 K, 1230.1 kPa): 958.1 ± 1.2 kg/m3 | mass density (343.14 K, 1242.1 kPa): 958.1 ± 1.2 kg/m3 | mass density (343.14 K, 1256.4 kPa): 958.1 ± 1.2 kg/m3 | mass density (343.14 K, 1268.3 kPa): 958 ± 1.2 kg/m3 | mass density (343.14 K, 2111 kPa): 958.7 ± 1.2 kg/m3 | mass density (343.14 K, 2133.5 kPa): 958.7 ± 1.2 kg/m3 | mass density (343.14 K, 2152.4 kPa): 958.7 ± 1.2 kg/m3 | mass density (343.14 K, 2172.4 kPa): 958.8 ± 1.2 kg/m3 | mass density (343.14 K, 2192.8 kPa): 958.8 ± 1.2 kg/m3 | mass density (343.14 K, 2212.6 kPa): 958.8 ± 1.2 kg/m3 | mass density (343.14 K, 2232.6 kPa): 958.8 ± 1.2 kg/m3 | mass density (343.14 K, 2256.5 kPa): 958.8 ± 1.2 kg/m3 | mass density (343.14 K, 2276.6 kPa): 958.9 ± 1.2 kg/m3 | mass density (343.14 K, 2301.1 kPa): 958.8 ± 1.2 kg/m3 | mass density (343.14 K, 2322.3 kPa): 958.9 ± 1.2 kg/m3 | mass density (343.14 K, 2342.9 kPa): 958.8 ± 1.2 kg/m3 | mass density (343.14 K, 2498.5 kPa): 959.1 ± 1.2 kg/m3 | mass density (343.14 K, 2520.2 kPa): 958.9 ± 1.2 kg/m3 | mass density (343.14 K, 2541.5 kPa): 959.1 ± 1.2 kg/m3 | mass density (343.14 K, 2567.9 kPa): 959 ± 1.2 kg/m3 | mass density (343.14 K, 2590.1 kPa): 959.1 ± 1.2 kg/m3 | mass density (343.14 K, 2612.1 kPa): 959 ± 1.2 kg/m3 | mass density (343.14 K, 2638.5 kPa): 959.1 ± 1.2 kg/m3 | mass density (343.14 K, 2660.7 kPa): 959.1 ± 1.2 kg/m3 | mass density (343.14 K, 2683.4 kPa): 959.2 ± 1.2 kg/m3 | mass density (343.14 K, 6196.6 kPa): 961.7 ± 1.2 kg/m3 | mass density (343.14 K, 6236.7 kPa): 961.9 ± 1.2 kg/m3 | mass density (343.14 K, 6269.8 kPa): 961.8 ± 1.2 kg/m3 | mass density (343.14 K, 6638.6 kPa): 962.2 ± 1.2 kg/m3 | mass density (343.14 K, 6667.6 kPa): 962.1 ± 1.2 kg/m3 | mass density (343.14 K, 6695.6 kPa): 962.2 ± 1.2 kg/m3 | mass density (343.14 K, 6726.9 kPa): 962.2 ± 1.2 kg/m3 | mass density (343.14 K, 7550.4 kPa): 962.9 ± 1.2 kg/m3 | mass density (343.14 K, 7576.5 kPa): 962.8 ± 1.2 kg/m3 | mass density (343.14 K, 7602.9 kPa): 962.8 ± 1.2 kg/m3 | mass density (343.14 K, 7633.5 kPa): 962.9 ± 1.2 kg/m3 | mass density (343.14 K, 7659 kPa): 962.9 ± 1.2 kg/m3 | mass density (343.14 K, 7685.3 kPa): 963 ± 1.2 kg/m3 | mass density (343.14 K, 7716.2 kPa): 962.9 ± 1.2 kg/m3 | mass density (343.14 K, 7742 kPa): 963 ± 1.2 kg/m3 | mass density (343.14 K, 8529.9 kPa): 963.5 ± 1.2 kg/m3 | mass density (343.14 K, 8557.5 kPa): 963.5 ± 1.2 kg/m3 | mass density (343.14 K, 8590 kPa): 963.6 ± 1.2 kg/m3 | mass density (343.14 K, 8617.8 kPa): 963.7 ± 1.2 kg/m3 | mass density (343.14 K, 8680.1 kPa): 963.6 ± 1.2 kg/m3 | mass density (343.14 K, 8708.7 kPa): 963.8 ± 1.2 kg/m3 | mass density (343.14 K, 11319 kPa): 965.5 ± 1.2 kg/m3 | mass density (343.14 K, 11356 kPa): 965.5 ± 1.2 kg/m3 | mass density (343.14 K, 11392 kPa): 965.6 ± 1.2 kg/m3 | mass density (343.14 K, 11435 kPa): 965.6 ± 1.2 kg/m3 | mass density (343.14 K, 11471 kPa): 965.7 ± 1.2 kg/m3 | mass density (343.14 K, 11507 kPa): 965.8 ± 1.2 kg/m3 | mass density (343.14 K, 11550 kPa): 965.7 ± 1.2 kg/m3 | mass density (343.14 K, 11586 kPa): 965.8 ± 1.2 kg/m3 | mass density (343.14 K, 11622 kPa): 965.8 ± 1.2 kg/m3 | mass density (343.14 K, 11664 kPa): 966 ± 1.2 kg/m3 | mass density (343.14 K, 12063 kPa): 966.2 ± 1.2 kg/m3 | mass density (343.14 K, 12100 kPa): 966.1 ± 1.2 kg/m3 | mass density (343.14 K, 12131 kPa): 966.2 ± 1.2 kg/m3 | mass density (343.14 K, 12213 kPa): 966.1 ± 1.2 kg/m3 | mass density (343.14 K, 17659 kPa): 969.9 ± 1.2 kg/m3 | mass density (343.14 K, 18549 kPa): 970.7 ± 1.2 kg/m3 | mass density (343.14 K, 18578 kPa): 970.7 ± 1.2 kg/m3 | mass density (343.14 K, 18602 kPa): 970.7 ± 1.2 kg/m3 | mass density (343.14 K, 18626 kPa): 970.7 ± 1.2 kg/m3 | mass density (343.14 K, 18893 kPa): 970.8 ± 1.2 kg/m3 | mass density (343.14 K, 20126 kPa): 971.6 ± 1.2 kg/m3 and 971.7 ± 1.2 kg/m3 | mass density (343.14 K, 20127 kPa): 971.7 ± 1.2 kg/m3 | mass density (343.14 K, 20128 kPa): 971.7 ± 1.2 kg/m3 | mass density (343.14 K, 25755 kPa): 975.4 ± 1.2 kg/m3 | mass density (343.14 K, 25795 kPa): 975.4 ± 1.2 kg/m3 | mass density (343.14 K, 25825 kPa): 975.4 ± 1.2 kg/m3 | mass density (343.14 K, 25856 kPa): 975.4 ± 1.2 kg/m3 | mass density (343.14 K, 25888 kPa): 975.5 ± 1.2 kg/m3 | mass density (343.14 K, 25925 kPa): 975.6 ± 1.2 kg/m3 | mass density (343.14 K, 25957 kPa): 975.5 ± 1.2 kg/m3 | mass density (343.14 K, 25988 kPa): 975.6 ± 1.2 kg/m3 | mass density (343.14 K, 26018 kPa): 975.6 ± 1.2 kg/m3 | mass density (343.14 K, 26052 kPa): 975.6 ± 1.2 kg/m3 | mass density (343.15 K, 203.3 kPa): 957.3 ± 1.2 kg/m3 | mass density (343.15 K, 203.6 kPa): 957.2 ± 1.2 kg/m3 and 957.3 ± 1.2 kg/m3 and 957.1 ± 1.2 kg/m3
